Patent EP0212822A1, “A composition containing a plant growth regulator and an alkanol and a method of using the same” (ICI AMERICAS INC., priority 1985, dated 1987)

Key:
Water Oak = assay: Trunk injection, holes at 8 inch intervals, Retardation and Uniformity Ratings; format: in vivo, Quercus nigra (Water Oak); parameters: key to Uniformity Rating (U): 0 = no effect from PGR; 1 = poor; 2 = fair; 3 = acceptable; 4 = very good; 5 = excellent; key to Retardation Rating (R): 0 = no retardataion; 1 = 1-20% retardation; 2 = 21-40% retardation; 3 = 41-60% retardation; 4 = 61-80% retardation; 5 = 81-100% retardation; conditions: 75 ml/hole
Description: (§1) The examples which follow exemplify the improvements obtained by this invention. However, these examples are not intended to limit the scope of the invention. In Examples 1-41, the subject trees were injected at a distance approximately one foot from the soil line by drilling 7/32 inch diameter holes to a 2 inch depth at a 30-45° angle tangential to the trunk with a pressure injector (150 psi) purchased from the Asplundh Tree Expert Co., Company No. 346-3502. The results are expressed in terms of Retardation and Uniformity Ratings. The Retardation rating scale is as follows: • 0 = no retardataion • 1 = 1-20% retardation • 2 = 21-40% retardation • 3 = 41-60% retardation • 4 = 61-80% retardation • 5 = 81-100% retardation
(§2) The Uniformity Rating is a measure of the consistency of response to the treatment between different branches of the tree. The Uniformity scale employed is as follows: • 0 = no effect from PGR • 1 = poor • 2 = fair • 3 = acceptable • 4 = very good • 5 = excellent
(§3) 10 (0.034 moles), 20 (0.068 moles) and 40 grams (0.136 moles) of (2RS, 3RS)-1-(4-chlorophenyl)-4,4-dimethyl-2-1,2,4-triazol-1-yl)pentan-3-ol (PGR) was dissolved in 1,1 and 1 liter, respectively, of methanol at room temperature and was stirred until the solution was clear, approximately 20 to 60 minutes. In these examples, the injection holes were placed at approximate 8 inch intervals.

Siberian Elm = assay: Trunk injection of trees (Brown method), Retardation and Uniformity Ratings; format: in vivo, Ulmus pumila (Siberian Elm); parameters: key to Uniformity Rating (U): 0 = no effect from PGR; 1 = poor; 2 = fair; 3 = acceptable; 4 = very good; 5 = excellent; conditions: 10 g (II) in 1 liter methanol
Description: A method of tree injection and apparatus employed herein is discussed in G. K. Brown, "Prototype Equipment for Commercial Pressure - Injection of Aqueous Growth Regulators Into Trees," Journal of Arboriculture, Vol. 4, pp. 7-13, 1978, and in the references noted therein. Under the Brown method the number of injection holes and total injection volume (TIV) of PGR solution is determined by measuring the diameter of the tree at DBH and using the following formulae: […]
as §1, §2
10 (0.034 moles) grams of (2RS,3RS)-1-(4-chlorophenyl)-4,4-dimethyl-2-1,2,4-triazol-1-yl)pen- tan-3-ol (II) of the formula [drawing 41] was dissolved in 1 liter of methanol at room temperature and was stirred until the solution was clear, approximately 20 minutes.
In these examples, the number of injection holes, volume per injection hole and total injection volume in ml was determined from the DBH in accordance' with the Brown method.

Willow Oak = assay: Trunk injection, holes at 4 inch intervals, Retardation and Uniformity Ratings; format: in vivo, Quercus phellos (Willow Oak); parameters: key to Uniformity Rating (U): 0 = no effect from PGR; 1 = poor; 2 = fair; 3 = acceptable; 4 = very good; 5 = excellent; conditions: 38 ml/hole
Description: as §1, §2
10 (0.034 moles), 20 (0.068 moles) and 40 grams (0.136 moles) of (2RS, 3RS)-1-(4-chlorophenyl)-4,4-dimethyl-2-l,2,4-triazol-l-yl)pentan-3-ol (PGR) were dissolved in 1,1 and 1 liter, respectively, of methanol at room temperature and was stirred until the solution was clear, approximately 20 to 60 minutes. In these examples, the injection holes were placed at approximate 4 inch intervals.

Sycamore = assay: Trunk injection, holes at 8 inch intervals, Retardation and Uniformity Ratings; format: in vivo, Platanus occidentalis (Sycamore); parameters: key to Uniformity Rating (U): 0 = no effect from PGR; 1 = poor; 2 = fair; 3 = acceptable; 4 = very good; 5 = excellent; conditions: 75 ml/hole
Description: as §1, §2, §3

[1] = week 24, 10 g PGR in 1 liter methanol, listed as 7, 10 injection holes, 750 ml per tree
[2] = week 24, 10 g PGR in 1 liter methanol, listed as 8, 10 injection holes, 750 ml per tree
[3] = week 24, 10 g PGR in 1 liter methanol, listed as 9, 6 injection holes, 450 ml per tree
[4] = week 24, 10 g PGR in 1 liter methanol, listed as 10, 6 injection holes, 450 ml per tree
[5] = week 24, 20 g PGR in 1 liter methanol, listed as 11
[6] = week 24, 20 g PGR in 1 liter methanol, listed as 12
[7] = week 24, 20 g PGR in 1 liter methanol, listed as 13
[8] = week 24, 40 g PGR in 1 liter methanol, listed as 15, 7 injection holes, 525 ml per tree
[9] = week 24, 40 g PGR in 1 liter methanol, listed as 16, 10 injection holes, 750 ml per tree
[10] = week 24, 40 g PGR in 1 liter methanol, listed as 17, 6 injection holes, 450 ml per tree
[11] = week 56, 10 g PGR in 1 liter methanol, listed as 7, 10 injection holes, 750 ml per tree
[12] = week 56, 10 g PGR in 1 liter methanol, listed as 8, 10 injection holes, 750 ml per tree
[13] = week 56, 10 g PGR in 1 liter methanol, listed as 9, 6 injection holes, 450 ml per tree
[14] = week 56, 10 g PGR in 1 liter methanol, listed as 10, 6 injection holes, 450 ml per tree
[15] = week 56, 20 g PGR in 1 liter methanol, listed as 11
[16] = week 56, 20 g PGR in 1 liter methanol, listed as 12
[17] = week 56, 20 g PGR in 1 liter methanol, listed as 13
[18] = week 56, 40 g PGR in 1 liter methanol, listed as 15, 7 injection holes, 525 ml per tree
[19] = week 56, 40 g PGR in 1 liter methanol, listed as 16, 10 injection holes, 750 ml per tree
[20] = week 56, 40 g PGR in 1 liter methanol, listed as 17, 6 injection holes, 450 ml per tree
[21] = week 14 after treatment, listed as 1, 12 in. DBH tree, 229 ml per tree
[22] = week 14 after treatment, listed as 2, 17 in. DBH tree, 432 ml per tree
[23] = week 14 after treatment, listed as 3, 13 in. DBH tree, 268 ml per tree
[24] = week 14 after treatment, listed as 4, 11 in. DBH tree, 192 ml per tree
[25] = week 14 after treatment, listed as 5, 15 in. DBH tree, 119 ml per tree
[26] = week 14 after treatment, listed as 6, 11 in. DBH tree, 192 ml per tree
[27] = week 67 after treatment, listed as 1, 12 in. DBH tree, 229 ml per tree
[28] = week 67 after treatment, listed as 2, 17 in. DBH tree, 432 ml per tree
[29] = week 67 after treatment, listed as 3, 13 in. DBH tree, 268 ml per tree
[30] = week 67 after treatment, listed as 4, 11 in. DBH tree, 192 ml per tree
[31] = week 67 after treatment, listed as 5, 15 in. DBH tree, 119 ml per tree
[32] = week 67 after treatment, listed as 6, 11 in. DBH tree, 192 ml per tree
[33] = week 24, 20 g PGR in 1 liter methanol
[34] = week 24, 40 g PGR in 1 liter methanol
[35] = week 56, 20 g PGR in 1 liter methanol
[36] = week 56, 40 g PGR in 1 liter methanol

CC(C)(C)[C@@H](O)[C@@H](Cc1ccc(Cl)cc1)n1cncn1 (racemic) [Formula (II), (2RS,3RS)-1-(4-chlorophenyl-4,4-dimethyl-2-1,2,4-triazol-1-yl)pentan-3-ol]
Retardation Rating (R) (Water Oak; [1]): 2 (2 = 21-40% retardation) | Uniformity Rating (U) (Water Oak; [1]): 3 | Retardation Rating (R) (Water Oak; [2]): 3 (3 = 41-60% retardation) | Uniformity Rating (U) (Water Oak; [2]): 3 | Retardation Rating (R) (Water Oak; [3]): 3 (3 = 41-60% retardation) | Uniformity Rating (U) (Water Oak; [3]): 3 | Retardation Rating (R) (Water Oak; [4]): 5 (5 = 81-100% retardation) | Uniformity Rating (U) (Water Oak; [4]): 5 | Retardation Rating (R) (Water Oak; [5]): 2 (2 = 21-40% retardation) | Uniformity Rating (U) (Water Oak; [5]): 3 | Retardation Rating (R) (Water Oak; [6]): 5 (5 = 81-100% retardation) | Uniformity Rating (U) (Water Oak; [6]): 5 | Retardation Rating (R) (Water Oak; [7]): 4 (4 = 61-80% retardation) | Uniformity Rating (U) (Water Oak; [7]): 4 | Retardation Rating (R) (Water Oak; [8]): 1 (1 = 1-20% retardation) | Uniformity Rating (U) (Water Oak; [8]): 1 | Retardation Rating (R) (Water Oak; [9]): 0 | Uniformity Rating (U) (Water Oak; [9]): 0 | Retardation Rating (R) (Water Oak; [10]): 3 (3 = 41-60% retardation) | Uniformity Rating (U) (Water Oak; [10]): 3 | Retardation Rating (R) (Water Oak; [11]): 3 (3 = 41-60% retardation) | Uniformity Rating (U) (Water Oak; [11]): 3 | Retardation Rating (R) (Water Oak; [12]): 3 (3 = 41-60% retardation) | Uniformity Rating (U) (Water Oak; [12]): 3 | Retardation Rating (R) (Water Oak; [13]): 5 (5 = 81-100% retardation) | Uniformity Rating (U) (Water Oak; [13]): 4 | Retardation Rating (R) (Water Oak; [14]): 5 (5 = 81-100% retardation) | Uniformity Rating (U) (Water Oak; [14]): 5 | Retardation Rating (R) (Water Oak; [15]): 4 (4 = 61-80% retardation) | Uniformity Rating (U) (Water Oak; [15]): 5 | Retardation Rating (R) (Water Oak; [16]): 5 (5 = 81-100% retardation) | Uniformity Rating (U) (Water Oak; [16]): 4 | Retardation Rating (R) (Water Oak; [17]): 4 (4 = 61-80% retardation) | Uniformity Rating (U) (Water Oak; [17]): 4 | Retardation Rating (R) (Water Oak; [18]): 4 (4 = 61-80% retardation) | Uniformity Rating (U) (Water Oak; [18]): 4 | Retardation Rating (R) (Water Oak; [19]): 3 (3 = 41-60% retardation) | Uniformity Rating (U) (Water Oak; [19]): 3 | Retardation Rating (R) (Water Oak; [20]): 3 (3 = 41-60% retardation) | Uniformity Rating (U) (Water Oak; [20]): 3 | Retardation Rating (R) (Siberian Elm; [21]): 3 (3 = 41-60% retardation) | Uniformity Rating (U) (Siberian Elm; [21]): 4 | Retardation Rating (R) (Siberian Elm; [22]): 3 (3 = 41-60% retardation) | Uniformity Rating (U) (Siberian Elm; [22]): 3 | Retardation Rating (R) (Siberian Elm; [23]): 4 (4 = 61-80% retardation) | Uniformity Rating (U) (Siberian Elm; [23]): 4 | Retardation Rating (R) (Siberian Elm; [24]): 4 (4 = 61-80% retardation) | Uniformity Rating (U) (Siberian Elm; [24]): 4 | Retardation Rating (R) (Siberian Elm; [25]): 3 (3 = 41-60% retardation) | Uniformity Rating (U) (Siberian Elm; [25]): 5 | Retardation Rating (R) (Siberian Elm; [26]): 3 (3 = 41-60% retardation) | Uniformity Rating (U) (Siberian Elm; [26]): 4 | Retardation Rating (R) (Siberian Elm; [27]): 5 (5 = 81-100% retardation) | Uniformity Rating (U) (Siberian Elm; [27]): 5 | Retardation Rating (R) (Siberian Elm; [28]): 4 (4 = 61-80% retardation) | Uniformity Rating (U) (Siberian Elm; [28]): 3 | Retardation Rating (R) (Siberian Elm; [29]): 4 (4 = 61-80% retardation) | Uniformity Rating (U) (Siberian Elm; [29]): 4 | Retardation Rating (R) (Siberian Elm; [30]): 5 (5 = 81-100% retardation) | Uniformity Rating (U) (Siberian Elm; [30]): 5 | Retardation Rating (R) (Siberian Elm; [31]): 5 (5 = 81-100% retardation) | Uniformity Rating (U) (Siberian Elm; [31]): 5 | Retardation Rating (R) (Siberian Elm; [32]): 5 (5 = 81-100% retardation) | Uniformity Rating (U) (Siberian Elm; [32]): 5 | Retardation Rating (R) (Willow Oak; [33]): 4 (4 = 61-80% retardation) | Uniformity Rating (U) (Willow Oak; [33]): 3 | Retardation Rating (R) (Willow Oak; [34]): 4 (4 = 61-80% retardation) | Uniformity Rating (U) (Willow Oak; [34]): 4 | Retardation Rating (R) (Willow Oak; [35]): 5 (5 = 81-100% retardation) | Uniformity Rating (U) (Willow Oak; [35]): 5 | Retardation Rating (R) (Willow Oak; [36]): 4 (4 = 61-80% retardation) | Uniformity Rating (U) (Willow Oak; [36]): 4 | Retardation Rating (R) (Sycamore; [33]): 3 (3 = 41-60% retardation) | Uniformity Rating (U) (Sycamore; [33]): 4 | Retardation Rating (R) (Sycamore; [35]): 4 (4 = 61-80% retardation) | Uniformity Rating (U) (Sycamore; [35]): 4
